One assay addresses human plasma kallikrein (Homo sapiens, UniProt P03952). The experiment in a line: Kallikrein inhibition assay (FLINT) utilizing a quenched AMC peptide substrate Z-Gly-Pro-Arg-AMC. The assay is classed as biochemical. The settings on record: kinetic (KIN) reads, read-out: Kallikrein KIN Inh IC50. In outline:
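IC50 from a 4-parameter logistic fit of % inhibition from 11 concentrations (3-fold, top 1 μM, 2% DMSO). Compound pre-incubated 30 min with 2 nM enzyme in Tris pH 7.5, NaCl, CaCl2, BSA, CHAPS, then 50 μM AMC peptide substrate added. Fluorescence (340/440 nm) followed every 5 min for 30 min at room temperature.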

The target of a further assay is Factor XIa (Homo sapiens, UniProt P03951). The experiment in a line: Factor XIa inhibition assay (FLINT) utilizing a fluorophore-quencher pair peptide substrate 5Fam-[…]-K5Tamra. Format: biochemical. As to conditions: kinetic (KIN) reads, read-out: FXIa KIN Inh IC50. The gist of the method: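 Compounds were tested as 11-point 3-fold dilutions from 100 nM (2% DMSO). They were preincubated 30 min with FXIa in 50 mM Tris pH 7.5, 5 mM CaCl2, then 15 μM fluorophore-quencher peptide was added. Cleavage was followed at 485/520 nm over 30 min, and IC50 was derived by 4-parameter logistic fit.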
Factor XIa, sequence (P03951 388-625 limits assumed): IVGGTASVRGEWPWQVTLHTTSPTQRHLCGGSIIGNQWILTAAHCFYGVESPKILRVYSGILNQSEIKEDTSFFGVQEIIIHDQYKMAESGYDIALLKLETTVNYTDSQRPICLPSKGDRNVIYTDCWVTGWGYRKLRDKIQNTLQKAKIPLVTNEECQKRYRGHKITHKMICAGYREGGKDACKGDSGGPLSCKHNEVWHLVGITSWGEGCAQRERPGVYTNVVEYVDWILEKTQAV
Factor XIa, sequence (P03951 19-387 partner limits assumed): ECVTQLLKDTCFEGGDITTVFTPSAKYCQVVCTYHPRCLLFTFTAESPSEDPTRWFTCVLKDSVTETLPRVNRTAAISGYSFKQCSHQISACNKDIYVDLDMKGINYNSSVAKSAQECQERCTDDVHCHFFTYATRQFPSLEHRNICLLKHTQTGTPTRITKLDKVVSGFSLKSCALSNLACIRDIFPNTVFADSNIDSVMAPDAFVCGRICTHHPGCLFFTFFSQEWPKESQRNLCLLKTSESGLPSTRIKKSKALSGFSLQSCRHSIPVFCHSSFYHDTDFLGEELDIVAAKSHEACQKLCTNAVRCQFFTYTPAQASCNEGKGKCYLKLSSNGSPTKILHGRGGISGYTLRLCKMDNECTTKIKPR

SMILES strings stand for the structures. Like-named read-outs stand apart in the source and are kept apart here.

Results on 20 compounds are retold here after patent US20230097157A1, “Bicyclic Pyridin-2-one and pyrimidin-4-one Derivatives Useful As a Factor XIa Inhibitors” (Janssen Pharmaceutica NV, priority 2021, published 2023).

human plasma kallikrein, sequence (P03952 391-638 limits assumed): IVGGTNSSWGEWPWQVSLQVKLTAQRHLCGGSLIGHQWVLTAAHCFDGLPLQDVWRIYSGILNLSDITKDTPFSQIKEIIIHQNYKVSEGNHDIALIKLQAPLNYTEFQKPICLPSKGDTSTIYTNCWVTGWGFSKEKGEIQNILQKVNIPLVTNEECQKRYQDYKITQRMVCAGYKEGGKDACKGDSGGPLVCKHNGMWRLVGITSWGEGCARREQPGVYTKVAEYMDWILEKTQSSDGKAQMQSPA
human plasma kallikrein, sequence (P03952 20-390 partner limits assumed): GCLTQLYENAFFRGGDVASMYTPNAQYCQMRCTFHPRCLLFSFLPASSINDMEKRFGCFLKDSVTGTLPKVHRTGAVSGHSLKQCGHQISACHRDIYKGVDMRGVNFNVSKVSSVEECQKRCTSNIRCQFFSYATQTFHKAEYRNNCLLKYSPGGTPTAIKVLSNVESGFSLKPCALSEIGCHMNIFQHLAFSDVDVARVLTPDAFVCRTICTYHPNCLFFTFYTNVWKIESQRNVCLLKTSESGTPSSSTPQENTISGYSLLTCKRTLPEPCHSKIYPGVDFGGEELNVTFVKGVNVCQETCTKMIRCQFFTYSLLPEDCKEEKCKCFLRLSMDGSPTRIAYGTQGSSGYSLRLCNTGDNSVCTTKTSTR

`C[C@@H]1C[C@H](c2ncc(-c3ccc4nn(C)cc4c3)[nH]2)n2c1cc(-c1c(-n3cnnn3)ccc(Cl)c1F)cc2=O` (stereo in doubt) [Example 47, (1*R,3*R)-7-(3-Chloro-2-fluoro-6-(1H-tetrazol-1-yl)phenyl)-1-methyl-3-(5-(2-methyl-2H-indazol-5-yl)-1H-imidazol-2-yl)-2,3-dihydroindolizin-5(1H)-one]: the IC50 on human plasma kallikrein (values in nM) came to 21.7 nM; at Factor XIa (values in nM), 23.7 nM.
`C[C@@H]1C[C@@H](c2ncc(-c3ccnc(C(F)(F)F)c3)[nH]2)n2c1nc(-c1c(-n3cnnn3)ccc(Cl)c1F)cc2=O` (relative stereo) [Example 147, (6S*,8R*)-2-(3-Chloro-2-fluoro-6-(1H-tetrazol-1-yl)phenyl)-8-methyl-6-(5-(2-(trifluoromethyl)pyridin-4-yl)-1H-imidazol-2-yl)-7,8-dihydropyrrolo[1,2-a]pyrimidin-4(6H)-one]: the IC50 on human plasma kallikrein (unit μM) and on Factor XIa (unit μM) was above 10000 nM throughout.
For the compound `COC(=O)Nc1ccc(-c2cnc([C@@H]3C[C@@H](C)c4nc(-c5c(-n6cnnn6)ccc(Cl)c5F)cc(=O)n43)[nH]2)cc1` (stereo in doubt) [Example 126, Methyl (4-(2-((6*S,8*R)-2-(3-Chloro-2-fluoro-6-(1H-tetrazol-1-yl)phenyl)-8-methyl-4-oxo-4,6,7,8-tetrahydropyrrolo[1,2-a]pyrimidin-6-yl)-1H-imidazol-5-yl)phenyl)carbamate], the IC50 worked out at 3.4 nM on human plasma kallikrein (values in nM) and 0.3 nM at Factor XIa (values in nM).
For `Nc1ccc(-c2cnc(C3CCCCc4cc(-c5c(-n6cnnn6)ccc(Cl)c5F)cc(=O)n43)[nH]2)c(F)n1` (stereo not shown) [Cmpd (IV), 6-(5-(6-amino-2-fluoropyridin-3-yl)-1H-imidazol-2-yl)-2-(3-chloro-2-fluoro-6-(1H-tetrazol-1-yl)phenyl)-7,8,9,10-tetrahydropyrido[1,2-a]azepin-4(6H)-one], in that order: 160 nM and 48 nM.
For `C[C@@H]1C[C@H](c2ncc(-c3cnnn3C)[nH]2)n2c1nc(-c1c(-n3cnnn3)ccc(Cl)c1F)cc2=O` (relative stereo) [Example 135, (6*R,8*R)-2-(3-Chloro-2-fluoro-6-(1H-tetrazol-1-yl)phenyl)-8-methyl-6-(5-(1-methyl-1H-1,2,3-triazol-5-yl)-1H-imidazol-2-yl)-7,8-dihydropyrrolo[1,2-a]pyrimidin-4(6H)-one], the IC50 on human plasma kallikrein (unit μM) is above 10000 nM; at Factor XIa (unit μM) it was 2700 nM.
For the compound `C[C@H]1C[C@@H](c2ncc(-c3ccnc(C#N)c3)[nH]2)n2c1cc(-c1c(-n3cnnn3)ccc(Cl)c1F)cc2=O` (relative stereo) [Example 32, 4-(2-((1S,3S)-7-(3-Chloro-2-fluoro-6-(1H-tetrazol-1-yl)phenyl)-1-methyl-5-oxo-1,2,3,5-tetrahydroindolizin-3-yl)-1_H-imidazol-5-yl)picolinonitrile], the figures for the half-inhibitory concentration (IC50) on human plasma kallikrein (values in nM) and on Factor XIa (values in nM) were 90.7 nM and 11.2 nM, respectively.
On to `C[C@H]1C[C@H](c2ncc(-c3ccc(NC(=O)C4CC4)nc3)[nH]2)n2c1nc(-c1c(-n3cnnn3)ccc(Cl)c1F)cc2=O` (stereo in doubt) [Example 121, N-(5-(2-((6*R,8*S)-2-(3-Chloro-2-fluoro-6-(1H-tetrazol-1-yl)phenyl)-8-methyl-4-oxo-4,6,7,8-tetrahydropyrrolo[1,2-a]pyrimidin-6-yl)-1H-imidazol-5-yl)pyridin-2-yl)cyclopropanecarboxamide], for which the IC50 came out at 4800 nM at human plasma kallikrein (unit μM) and 675 nM on Factor XIa (values in nM).
Regarding `C[C@H]1C[C@@H](c2ncc(-c3ccc(N)nc3F)[nH]2)n2c1cc(-c1cc(Cl)ccc1-n1cnnn1)cc2=O` (single isomer, unassigned) [Example 36], the figures for the IC50 on human plasma kallikrein (unit μM) and at Factor XIa (unit μM) were above 10000 nM and 1500 nM, respectively.
Consider `CNC(=O)c1ccc(-c2cnc([C@@H]3C[C@H](C)c4cc(-c5c(-n6cnnn6)ccc(Cl)c5F)cc(=O)n43)[nH]2)cn1` [Example 12, 5-(2-((1S,3S)-7-(3-Chloro-2-fluoro-6-(1H-tetrazol-1-yl)phenyl)-1-methyl-5-oxo-1,2,3,5-tetrahydroindolizin-3-yl)-1H-imidazol-5-yl)-N-methylpicolinamide], for which the figures for the IC50 on human plasma kallikrein (values in nM) and on Factor XIa (values in nM) were 205 nM and 63.7 nM, respectively.
The corresponding values for `C[C@H]1C[C@@H](c2ncc(-c3ncc(N)nc3F)[nH]2)n2c1nc(-c1c(-n3cnnn3)ccc(Cl)c1F)cc2=O` (single isomer, unassigned) [Example 89, (6*S,8S)-6-(5-(5-Amino-3-fluoropyrazin-2-yl)-1H-imidazol-2-yl)-2-(3-chloro-2-fluoro-6-(1H-tetrazol-1-yl)phenyl)-8-methyl-7,8-dihydropyrrolo[1,2-a]pyrimidin-4(6H)-one] are around 45.9 nM and 5.1 nM.
`C[C@H]1C[C@@H](c2ncc(-c3c(C#N)cnn3C)[nH]2)n2c1cc(-c1c(-n3cnnn3)ccc(Cl)c1F)cc2=O` [Example 14, 5-(2-((1S,3S)-7-(3-Chloro-2-fluoro-6-(1H-tetrazol-1-yl)phenyl)-1-methyl-5-oxo-1,2,3,5-tetrahydroindolizin-3-yl)-1H-imidazol-5-yl)-1-methyl-1H-pyrazole-4-carbonitrile]: the figures for the IC50 at human plasma kallikrein (unit μM) and at Factor XIa (values in nM) were 4700 nM and 189 nM, respectively.
On to `C[C@H]1C[C@@H](c2ncc(-c3cn[nH]c3)[nH]2)n2c1nc(-c1c(-n3cnnn3)ccc(Cl)c1F)cc2=O` (stereo in doubt) [Example 107, (6*S,8*S)-6-(5-(1H-Pyrazol-4-yl)-1H-imidazol-2-yl)-2-(3-chloro-2-fluoro-6-(1H-tetrazol-1-yl)phenyl)-8-methyl-7,8-dihydropyrrolo[1,2-a]pyrimidin-4(6H)-one], for which the IC50 at human plasma kallikrein (values in nM) amounted to 95.9 nM; on Factor XIa (values in nM), 2.4 nM.
The corresponding values for `C[C@H]1C[C@@H](c2ncc(-c3cc(N)ncc3F)[nH]2)n2c1cc(-c1c(-n3cnnn3)ccc(Cl)c1F)cc2=O` [Example 19, (1S,3S)-3-(5-(2-Amino-5-fluoropyridin-4-yl)-1H-imidazol-2-yl)-7-(3-chloro-2-fluoro-6-(1H-tetrazol-1-yl)phenyl)-1-methyl-2,3-dihydroindolizin-5(1H)-one] are 270 nM and 25.4 nM.
For `CC(C)(O)COc1nccc(-c2cnc(C3CC4(CC4)c4nc(-c5c(-n6cnnn6)ccc(Cl)c5F)cc(=O)n43)[nH]2)c1F` (single isomer, unassigned) [Example 70, (R*)-2′-(3-Chloro-2-fluoro-6-(1H-tetrazol-1-yl)phenyl)-6′-(5-(3-fluoro-2-(2-hydroxy-2-methylpropoxy)pyridin-4-yl)-1H-imidazol-2-yl)-6′,7′-dihydro-4′H-spiro[cyclopropane-1,8′-pyrrolo[1,2-a]pyrimidin]-4′-one], in that order: 42.9 nM and 7.3 nM.
For `COC(=O)Nc1ccc(-c2cnc([C@@H]3C[C@@H](C)c4cc(-c5c(-n6cnnn6)ccc(Cl)c5F)cc(=O)n43)[nH]2)cc1` [Example 65, Methyl(4-(2-((1R,3S)-7-(3-chloro-2-fluoro-6-(1H-tetrazol-1-yl)phenyl)-1-methyl-5-oxo-1,2,3,5-tetrahydroindolizin-3-yl)-1H-imidazol-5-yl)phenyl)carbamate], in that order: 1.3 nM and 0.6 nM.
On to `C[C@H]1C[C@@H](c2ncc(-c3ccc(N)nc3F)[nH]2)n2c1cc(-c1c(-n3cnnn3)ccc(Cl)c1F)cc2=O` (stereo in doubt) [Example 68, (1*S,3*S)-3-(5-(6-Amino-2-fluoropyridin-3-yl)-1H-imidazol-2-yl)-7-(3-chloro-2-fluoro-6-(1H-tetrazol-1-yl)phenyl)-1-methyl-2,3-dihydroindolizin-5(1H)-one], for which the IC50 at human plasma kallikrein (unit μM) and on Factor XIa (unit μM) was above 10000 nM throughout.
For the compound `Cc1nc(N)c(F)cc1-c1cnc([C@H]2C[C@H](C)c3nc(-c4c(-n5cnnn5)ccc(Cl)c4F)cc(=O)n32)[nH]1` (relative stereo) [Example 129, (6*R,8*S)-6-(5-(6-Amino-5-fluoro-2-methylpyridin-3-yl)-1H-imidazol-2-yl)-2-(3-chloro-2-fluoro-6-(1H-tetrazol-1-yl)phenyl)-8-methyl-7,8-dihydropyrrolo[1,2-a]pyrimidin-4(6H)-one], the figures for the IC50 at human plasma kallikrein (unit μM) and at Factor XIa (values in nM) were 1600 nM and 168 nM, respectively.
On to `C[C@H]1C[C@@H](c2ncc(-c3ccc(N)nc3Cl)[nH]2)n2c1nc(-c1c(-n3cnnn3)ccc(Cl)c1F)cc2=O` (single isomer, unassigned) [Example 142], for which the figures for the IC50 on human plasma kallikrein (values in nM) and at Factor XIa (values in nM) were 18.3 nM and 0.2 nM, respectively.
On to `C[C@H]1C[C@H](c2ncc(-c3cn[nH]c3)[nH]2)n2c1nc(-c1c(-n3cnnn3)ccc(Cl)c1F)cc2=O` (stereo in doubt) [Example 109, (6*R,8*S)-6-(5-(1H-Pyrazol-4-yl)-1H-imidazol-2-yl)-2-(3-chloro-2-fluoro-6-(1H-tetrazol-1-yl)phenyl)-8-methyl-7,8-dihydropyrrolo[1,2-a]pyrimidin-4(6H)-one], for which the IC50 at human plasma kallikrein (unit μM) and on Factor XIa (unit μM) was above 10000 nM in each case.
Take `C[C@@H]1C[C@H](c2ncc(-c3ccn4nccc4c3)[nH]2)n2c1cc(-c1c(-n3cnnn3)ccc(Cl)c1F)cc2=O` (stereo in doubt) [Example 52, (1*R,3*R)-7-(3-Chloro-2-fluoro-6-(1H-tetrazol-1-yl)phenyl)-1-methyl-3-(5-(pyrazolo[1,5-a]pyridin-5-yl)-1H-imidazol-2-yl)-2,3-dihydroindolizin-5(1H)-one]: the IC50 is above 10000 nM at human plasma kallikrein (unit μM) and 7900 nM at Factor XIa (unit μM).

As usually defined, the IC50 is the point on the concentration scale where inhibition reaches its midpoint.
